Test results published in the NIST ThermoML archive (doi:10.1021/acs.jced.9b00286).
Numbers after ± are expanded uncertainties.

Details: Crystal; DSC

With OCc1ccc(O[C@@H]2O[C@H](CO)[C@@H](O)[C@H](O)[C@H]2O)cc1 [gastrodin] the Triple point temperature was 429.75 ± 1.2 K.
